According to paper PMC8508660 (2021):

Columns and labels:
[1] = test system: 22HT (DNA, G4) AGGGTTAGGGTTAGGGTTAGGG; assay: CD melting, 290 nm; conditions: 100 mM K+; 10 mM cacodylate pH 7.2; 2 µM DNA, 3 equiv. (6 µM) ligand; derived from two Tm (±0.5)
[2] = test system: 22HT (DNA, G4) AGGGTTAGGGTTAGGGTTAGGG; assay: CD melting, 295 nm; conditions: 100 mM Na+; 10 mM cacodylate pH 7.2; 2 µM DNA, 3 equiv. (6 µM) ligand; derived from two Tm (±0.5)
[3] = test system: c-MYC (DNA, G4) TGAGGGTGGGTAGGGTGGGTAA; assay: CD melting, 265 nm; conditions: 10 mM K+, 90 mM Li+; 10 mM cacodylate pH 7.2; 2 µM DNA, 3 equiv. (6 µM) ligand; derived from two Tm (±0.5)
[4] = test system: TBA (DNA, aptamer) GGTTGGTGTGGTTGG; assay: CD melting, 295 nm; conditions: 100 mM K+; 10 mM cacodylate pH 7.2; 2 µM DNA, 3 equiv. (6 µM) ligand; derived from two Tm (±0.5)

- ΔTm [1]: 0.7 °C
- ΔTm [2]: -0.2 °C
- ΔTm [3]: -0.2 °C
- ΔTm [4]: -0.4 °C
SMILES: COc1nc2c(N)ncnc2[n+]2ccccc12
